Source: US7612084B2, “Amine derivatives for the treatment of asthma and COPD” (Pfizer Inc, priority 2006, dated 2009)
Counter-ions that a name gives are not always drawn.

How the values were obtained:
[1] = target: human muscarinic M3 receptor (Homo sapiens, UniProt P20309); assay: Whole cell β-lactamase reporter assay in CHO cells expressing the hM3 receptor (antagonist activity); assay type: cell-based; settings: 80 nM carbamyl choline, IC50 converted to Ki by Cheng-Prusoff
Experimental: Functional Assessment of Antagonist Activity Using a Whole Cell β-Lactamase Reporter Assay in CHO Cells Expressing the hM3 Receptor.
CHO (Chinese Hamster Ovary) cells recombinantly expressing the human muscarinic M3 receptor were transfected with the NFAT_β-Lac_Zeo plasmid. Cells were grown in DMEM with Glutamax-1, supplemented with 25 mM HEPES(Life Technologies 32430-027), containing 10% FCS (Foetal Calf Serum; Sigma F-7524), […] Sodium pyruvate (Sigma S-8636), NEAA (non-Essential Amino Acids; Invitrogen 11140-035) and […] Zeocin (Invitrogen R250-01).
Cells were harvested for assay when they reached 80-90% confluency using enzyme free cell Dissociation Solution (Life technologies 13151-014) incubated with the cells for 5 min at 37° C. in an atmosphere containing 5% CO2. Detached cells were collected in warmed growth media and centrifuged at 200 rpm for 10 min, washed in PBS (Phosphate Buffered Saline; Life Technologies 14190-094) and centrifuged again as just described. The cells were re-suspended at 2×10^5 cells/ml in growth medium (composition as described above). 20 μl of this cell suspension was added to each well of a 384 well black clear bottomed plate (Greiner Bio One 781091-PFI). The assay buffer used was PBS supplemented with 0.05% Pluronic F-127 (Sigma 9003-11-6) and 2.5% DMSO. Muscarinic M3 receptor signalling was stimulated using 80 nM carbamyl choline (Aldrich N240-9) incubated with the cells for 4 h at 37° C./5% CO2 and monitored at the end of the incubation period using a Tecan SpectraFluor+plate reader (λ−excitation 405 nm, emission 450 nm and 503 nm). Compounds under test were added to the assay at the beginning of the 4 h incubation period and compound activity measured as the concentration dependent inhibition of the carbamyl choline induced signal. Inhibition curves were plotted and IC50 values generated using a 4-parameter sigmoid fit and converted to Ki values using the Cheng-Prusoff correction and the KD value for carbamyl choline in the assay.

[2] = target: human adrenergic B2 receptor (Homo sapiens, UniProt P07550); assay: Whole cell luciferase reporter assay in CHO cells expressing the hB2 receptor (agonist potency); assay type: cell-based; settings: 4 h incubation, read-out: EC50 - beta2
Chain of human adrenergic B2 receptor (P07550 whole entry): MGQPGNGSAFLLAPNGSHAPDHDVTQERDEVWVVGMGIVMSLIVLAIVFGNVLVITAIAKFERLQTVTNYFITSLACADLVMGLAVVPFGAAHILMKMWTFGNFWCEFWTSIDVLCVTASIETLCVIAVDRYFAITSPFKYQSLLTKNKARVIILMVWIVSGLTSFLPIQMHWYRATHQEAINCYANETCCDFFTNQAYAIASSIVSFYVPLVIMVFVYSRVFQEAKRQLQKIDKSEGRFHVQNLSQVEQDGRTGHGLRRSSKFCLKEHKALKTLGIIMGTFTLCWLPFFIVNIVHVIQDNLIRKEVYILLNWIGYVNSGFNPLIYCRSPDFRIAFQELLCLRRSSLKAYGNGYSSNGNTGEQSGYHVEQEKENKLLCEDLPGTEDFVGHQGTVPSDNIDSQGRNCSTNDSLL
Experimental: Functional Assessment of Agonist Potency and Efficacy Using a Whole Cell Luciferase Reporter Assay in CHO Cells Expressing the hB2 Receptor.
CHO (Chinese Hamster Ovary) cells recombinantly expressing the human adrenergic B2 receptor and transfected with a luciferase enzyme reporter gene were maintained in growth media composed of F12:DMEM (Sigma D6421) containing 10% Foetal Bovine Serum (FBS: Sigma F03921) 10 μg/ml puromycin (Sigma N277698), 0.5 mg/ml Geneticin G418 (Sigma G7034) and 2 mM L-glutamine (Sigma G7513). The cells were kept in sterile conditions at 37° C., in an atmosphere containing 5% CO2.
hB2 Luciferase Assay Protocol
Cells were harvested for assay when they reached 80-90% confluency using enzyme free cell Dissociation Solution (Life technologies 13151-014) incubated with the cells for 5 min at 37° C. in an atmosphere containing 5% CO2. Detached cells were collected in warmed growth media (composition described above), and re-suspended in assay media (F12:DMEM (Sigma D6421) containing 1% Foetal Bovine Serum (FBS: Sigma F03921), 10 μg/ml puromycin (Sigma N277698), 0.5 mg/ml Geneticin G418 (Sigma G7034) and 2 mM L-glutamine (Sigma G7513))to give a viable cell concentration of 1×10^6 cells/ml. 10 ul of this suspension was added to each well of a tissue culture treated low volume 384 well plate (Greiner788073) and the plate incubated in an atmosphere containing 5% CO2 at 37° C. for 2 h. Concentration ranges of test compounds were prepared in phosphate Buffered Saline containing 0.05% pluronic-F127 (Sigma P2443) and 2.5% DMSO. 2 μl of each test concentration were added to the appropriate 384 plate well and returned to the incubator for a further 4 h. At the end of the incubation period 4 μl of Steady-Glo reagent (Steady-Glo Luciferase assay system (Promega E2520) was added to each well and the plate read immediately in a Leadseeker Plate reader (Amersham Bioscience) using a 660 nm filter. Concentration effect curves were plotted and EC50 values generated using a 4-parameter sigmoid fit using an in-house data analysis programme. Isoprenaline was run in every assay as a reference standard.

Chain of human muscarinic M3 receptor (P20309 whole entry): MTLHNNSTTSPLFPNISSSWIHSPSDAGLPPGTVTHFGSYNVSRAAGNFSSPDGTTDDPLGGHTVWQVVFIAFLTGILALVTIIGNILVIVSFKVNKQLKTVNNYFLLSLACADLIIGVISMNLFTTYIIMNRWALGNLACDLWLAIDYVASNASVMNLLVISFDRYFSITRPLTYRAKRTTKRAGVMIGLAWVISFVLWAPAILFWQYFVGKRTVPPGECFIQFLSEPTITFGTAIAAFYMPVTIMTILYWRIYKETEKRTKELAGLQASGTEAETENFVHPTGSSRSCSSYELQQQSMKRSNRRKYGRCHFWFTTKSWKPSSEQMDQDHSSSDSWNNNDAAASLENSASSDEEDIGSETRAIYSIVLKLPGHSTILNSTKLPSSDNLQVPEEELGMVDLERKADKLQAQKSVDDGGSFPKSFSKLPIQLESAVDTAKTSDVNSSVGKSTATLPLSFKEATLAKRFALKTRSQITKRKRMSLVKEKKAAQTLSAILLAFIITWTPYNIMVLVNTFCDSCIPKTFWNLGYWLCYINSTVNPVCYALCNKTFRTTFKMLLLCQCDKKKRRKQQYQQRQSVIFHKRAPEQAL

SMILES | Ki [1] [pM] | EC50 [2] [pM]
CC(C)N(CC[C@H](c1ccccc1)c1cc(CCOc2ccc(CC(C)(C)NC[C@H](O)c3ccc(O)c4[nH]c(=O)ccc34)cc2)ccc1O)C(C)C [Example 20, 5-[(1R)-2-({2-[4-(2-{3-[(1R)-3-(diisopropylamino)-1-phenylpropyl]-4-hydroxyphenyl}ethoxy)phenyl]-11-dimethylethyl}amino)-1-hydroxyethyl]-8-hydroxyquinolin-2(1H)-one] | 390 | 28
CC(C)N(CC[C@H](c1ccccc1)c1cc(CCCCCOc2ccc(CCNC[C@H](O)c3ccc(O)c(NS(C)(=O)=O)c3)cc2)ccc1O)C(C)C [Example 17, N-(5-{(1R)-2-[(2-{4-[(5-{3-[(1R)-3-(diisopropylamino)-1-phenylpropyl]-4-hydroxyphenyl}pentyl)oxy]phenyl}ethyl)amino]-1-hydroxyethyl}-2-hydroxyphenyl)methanesulfonamide] | 3000 | 570
CC(C)N(CC[C@H](c1ccccc1)c1cc(CCOc2ccc(CCNC[C@H](O)c3ccc(O)c4[nH]c(=O)ccc34)cc2)ccc1O)C(C)C [Example 14, 5-[(1R)-2-({2-[4-(2-{3-[(1R)-3-(diisopropylamino)-1-phenylpropyl]-4-hydroxyphenyl}ethoxy)phenyl]ethyl}amino)-1-hydroxyethyl]-8-hydroxyquinolin-2(1H)-one] | 760 | 54
CC(C)N(CC[C@H](c1ccccc1)c1cc(CCOc2cccc(CCNC[C@H](O)c3ccc(O)c(NS(C)(=O)=O)c3)c2)ccc1O)C(C)C [Example 10, N-{5-[(1R)-2-({2-[3-(2-{3-[(1R)-3-(diisopropylamino)-1-phenylpropyl]-4-hydroxyphenyl}ethoxy)phenyl]ethyl}amino)-1-hydroxyethyl]-2-hydroxyphenyl}methanesulfonamide] | 1100 | 260
CC(C)N(CC[C@H](c1ccccc1)c1cc(CCCCOc2ccc(CCNC[C@H](O)c3ccc(O)c(CO)c3)cc2)ccc1O)C(C)C [Example 18, 2-[(1R)-3-(diisopropylamino)-1-phenylpropyl]-4-(4-{4-[2-({(2R)-2-hydroxy-2-[4-hydroxy-3-(hydroxymethyl)phenyl]ethyl}amino)ethyl]phenoxy}butyl)phenol] | – | 220
CC(C)N(CC[C@H](c1ccccc1)c1cc(OCCCCCCCNC[C@H](O)c2ccc(O)c(NS(C)(=O)=O)c2)ccc1O)C(C)C [Example 4, N-(5-{(1R)-2-[(7-{3-[(1R)-3-(diisopropylamino)-1-phenylpropyl]-4-hydroxyphenoxy}heptyl)amino]-1-hydroxyethyl}-2-hydroxyphenyl)methanesulfonamide] | 280 | 1300
CC(C)N(CC[C@H](c1ccccc1)c1cc(CCOc2ccc(CCNC[C@H](O)c3ccc(O)c(NS(C)(=O)=O)c3)cc2)ccc1O)C(C)C [Example 19, N-{5-[(1R)-2-({2-[4-(2-{3-[(1R)-3-(diisopropylamino)-1-phenylpropyl]-4-hydroxyphenyl}ethoxy)phenyl]ethyl}amino)-1-hydroxyethyl]-2-hydroxyphenyl}methanesulfonamide succinate salt] | 300 | 200
CC(C)N(CC[C@H](c1ccccc1)c1cc(CCCCOc2ccc(CCNC[C@H](O)c3ccc(O)c4[nH]c(=O)ccc34)cc2)ccc1O)C(C)C [Example 8, 5-[(1R)-2-({2-[4-(4-{3-[(1R)-3-(diisopropylamino)-1-phenylpropyl]-4-hydroxyphenyl}butoxy)phenyl]ethyl}amino)-1-hydroxyethyl]-8-hydroxyquinolin-2(1H)-one] | – | 35
CC(C)N(CC[C@H](c1ccccc1)c1cc(CCOc2cccc(CCNC[C@H](O)c3ccc(O)c(CO)c3)c2)ccc1O)C(C)C [Example 11, 2-[(1R)-3-(diisopropylamino)-1-phenylpropyl]-4-(2-{3-[2-({(2R)-2-hydroxy-2-[4-hydroxy-3-(hydroxymethyl)phenyl]ethyl}amino)ethyl]phenoxy}ethyl)phenol] | 1500 | 2200
CC(C)N(CC[C@H](c1ccccc1)c1cc(CCCCOc2ccc(CCNC[C@H](O)c3ccc(O)c(NS(C)(=O)=O)c3)cc2)ccc1O)C(C)C [Example 3, N-{5-[(1R)-2-({2-[4-(4-{3-[(1R)-3-(Diisopropylamino)-1-phenylpropyl]-4-hydroxyphenyl}butoxy)phenyl]ethyl}amino)-1-hydroxyethyl]-2-hydroxyphenyl}methanesulfonamide] | 1400 | 140
CC(C)N(CC[C@H](c1ccccc1)c1cc(CCOc2ccc(CCNC[C@H](O)c3cc(O)cc(O)c3)cc2)ccc1O)C(C)C [Example 12, 5-[(1R)-2-({2-[4-(2-{3-[(1R)-3-(diisopropylamino)-1-phenylpropyl]-4-hydroxyphenyl}ethoxy)phenyl]ethyl}amino)-1-hydroxyethyl]benzene-1,3-diol] | 260 | 13800
CC(C)N(CC[C@H](c1ccccc1)c1cc(CCOc2ccc(CCNC[C@H](O)c3ccc(O)c(NC=O)c3)cc2)ccc1O)C(C)C [Example 13, N-{5-[(1R)-2-({2-[4-(2-{3-[(1R)-3-(diisopropylamino)-1-phenylpropyl]-4-hydroxyphenyl}ethoxy)phenyl]ethyl}amino)-1-hydroxyethyl]-2-hydroxyphenyl}formamide] | 380 | 78
CC(C)N(CC[C@H](c1ccccc1)c1cc(CCCCOCCCCCCNC[C@H](O)c2ccc(O)c(NS(C)(=O)=O)c2)ccc1O)C(C)C [Example 6, N-{5-[(1R)-2-{[6-(4-{3-[(1R)-3-(Diisopropylamino)-1-phenylpropyl]-4-hydroxyphenyl}butoxy)hexyl]amino}-1-hydroxyethyl]-2-hydroxyphenyl}methanesulfonamide] | 2400 | 190
CC(C)N(CC[C@H](c1ccccc1)c1cc(CCCCCCCCCCNC[C@H](O)c2ccc(O)c(NS(C)(=O)=O)c2)ccc1O)C(C)C [Example 1, N-(5-{(1R)-2-[(10-{3-[(1R)-3-(diisopropylamino)-1-phenylpropyl]-4-hydroxyphenyl}decyl)amino]-1-hydroxyethyl}-2-hydroxyphenyl)methanesulfonamide] | 3400 | 880
CC(C)N(CC[C@H](c1ccccc1)c1cc(CCOc2ccc(CCNC[C@H](O)c3ccc(O)c(CO)c3)cc2)ccc1O)C(C)C [Example 15, 2-[(1R)-3-(diisopropylamino)-1-phenylpropyl]-4-(2-{4-[2-({(2R)-2-hydroxy-2-[4-hydroxy-3-(hydroxymethyl)phenyl]ethyl}amino)ethyl]phenoxy}ethyl)phenol] | 60 | 250
CC(C)N(CC[C@H](c1ccccc1)c1cc(CCCCCCCCNC[C@H](O)c2ccc(O)c(NS(C)(=O)=O)c2)ccc1O)C(C)C [Example 16, N-(5-{(1R)-2-[(8-{3-[(1R)-3-(diisopropylamino)-1-phenylpropyl]-4-hydroxyphenyl}octyl)amino]-1-hydroxyethyl}-2-hydroxyphenyl)methanesulfonamide] | 2000 | 1300
CC(C)N(CC[C@H](c1ccccc1)c1cc(CCCCOc2ccc(CCNC[C@H](O)c3cc(O)cc(O)c3)cc2)ccc1O)C(C)C [Example 9] | 1100 | 4800
